Results published in patent US20100267561A1, “HERBICIDAL PYRIDAZINONE DERIVATIVES” (priority 2007, published 2010).

Assays:
Assay type in all cases: in vivo
[1] = test system: eastern black (E.B.) nightshade (Solanum ptycanthum); test: Test B pre-/postemergence plant response; conditions: Preemergence
Source text: (§1) Seeds of plant species selected from blackgrass (Alopecurus myosuroides), downy bromegrass (Bromus tectorum), green foxtail (Setaria viridis), Italian ryegrass (Lolium multiflorum), wheat (Triticum aestivum), wild oat (Avena fatua), catchweed bedstraw (Galium aparine), bermudagrass (Cynodon dactylon), surinam grass (Brachiaria decumbens), cocklebur (Xanthium strumarium), corn (Zea mays), large crabgrass (Digitaria sanguinalis), woolly cupgrass (Eriochloa villosa), giant foxtail (Setaria faberii), goosegrass (Eleusine indica), johnsongrass (Sorghum halepense), kochia (Kochia scoparia), lambsquarters (Chenopodium album), morningglory (Ipomoea coccinea), eastern black (E.B.) nightshade (Solanum ptycanthum), yellow nutsedge (Cyperus esculentus), pigweed (Amaranthus retroflexus), common ragweed (Ambrosia elation), Russian thistle (Salsola iberica), soybean (Glycine max), common (oilseed) sunflower (Helianthus annuus), and velvetleaf (Abutilon theophrasti) were planted and treated preemergence with test chemicals formulated in a non-phytotoxic solvent mixture which included a surfactant.
(§2) At the same time, plants selected from these crop and weed species and also winter barley (Hordeum vulgare), canarygrass (Phalaris minor), chickweed (Stellaria media) and windgrass (Apera spica-venti) were treated with postemergence applications of some of the test chemicals formulated in the same manner. Plants ranged in height from 2 to 18 cm (1- to 4-leaf stage) for postemergence treatments.
(§3) Plant species in the flooded paddy test consisted of rice (Oryza sativa), umbrella sedge (Cyperus difformis), ducksalad (Heteranthera limosa) and barnyardgrass (Echinochloa crus-galli) grown to the 2-leaf stage for testing. At time of treatment, test pots were flooded to 3 cm above the soil surface, treated by application of test compounds directly to the paddy water, and then maintained at that water depth for the duration of the test. Treated plants and controls were maintained in a greenhouse for 13 to 15 days, after which time all species were compared to controls and visually evaluated. Plant response ratings, summarized in Table B, are based on a scale of 0 to 100 where 0 is no effect and 100 is complete control. A dash (-) response means no test result.

[2] = test system: pigweed (Amaranthus retroflexus); test: Test B pre-/postemergence plant response
Source text: as §1, §2, §3

[3] = test system: yellow nutsedge (Cyperus esculentus); test: Test B pre-/postemergence plant response
Source text: as §1, §2, §3

[4] = test system: Italian ryegrass (Lolium multiflorum); test: Test B pre-/postemergence plant response
Source text: as §1, §2, §3

[5] = test system: cocklebur (Xanthium strumarium); test: Test B pre-/postemergence plant response
Source text: as §1, §2, §3

[6] = test system: goosegrass (Eleusine indica); test: Test B pre-/postemergence plant response
Source text: as §1, §2, §3

[7] = test system: woolly cupgrass (Eriochloa villosa); test: Test B pre-/postemergence plant response
Source text: as §1, §2, §3

[8] = test system: Russian thistle (Salsola iberica); test: Test B pre-/postemergence plant response; conditions: Preemergence
Source text: as §1, §2, §3

[9] = test system: common ragweed (Ambrosia elation); test: Test B pre-/postemergence plant response
Source text: as §1, §2, §3

soybean (Glycine max) = test: Test B pre-/postemergence plant response
Source text: as §1, §2, §3

[10] = test system: wheat (Triticum aestivum); test: Test A pre-/postemergence plant response
Procedure, shortened: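 Soil: loam blended with sand. Formulation: non-phytotoxic solvent mixture plus surfactant, applied as preemergence directed soil spray and as postemergence spray. Scoring: visual, 0 no effect to 100 complete control, roughly 10 days post-treatment in greenhouse.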

[11] = 31 g ai/ha, scale 0 to 100 (0 no effect, 100 complete control)
[12] = Preemergence, 31 g ai/ha, scale 0 to 100 (0 no effect, 100 complete control)
[13] = Preemergence, 62 g ai/ha, scale 0 to 100
[14] = Preemergence, 8 g ai/ha, scale 0 to 100
[15] = Preemergence, 16 g ai/ha, scale 0 to 100
[16] = Preemergence, 16 g ai/ha, scale 0 to 100 (0 no effect, 100 complete control)
[17] = Preemergence, 31 g ai/ha, 0 to 100 scale, 0 no effect, 100 complete control
[18] = Postemergence, 31 g ai/ha, 0 to 100 scale (0 no effect, 100 complete control)
[19] = Postemergence, 125 g ai/ha, 0 to 100 scale, 0 no effect, 100 complete control
[20] = Preemergence, 31 g ai/ha, 0 to 100 scale, 0 is no effect, 100 is complete control
[21] = Preemergence, 125 g ai/ha, 0 to 100 scale (0 no effect, 100 complete control)
[22] = 8 g ai/ha, scale 0 to 100 (0 no effect, 100 complete control)
[23] = 62 g ai/ha, 0 to 100 scale, 0 no effect, 100 complete control
[24] = 8 g ai/ha, postemergence, 0-100 scale
[25] = 16 g ai/ha, postemergence, 0-100 scale
[26] = Postemergence, 31 g ai/ha, scale 0 to 100
[27] = Postemergence, 62 g ai/ha, scale 0 to 100, 0 no effect, 100 complete control
[28] = Preemergence, 8 g ai/ha, scale 0 to 100 (0 no effect, 100 complete control)
[29] = Preemergence, 62 g ai/ha, 0 to 100 scale, 0 no effect, 100 complete control
[30] = Postemergence, 16 g ai/ha, scale 0 to 100

Cc1cc(-c2ccc(Cl)cc2)nn1-c1c(OS(=O)(=O)c2ccccc2[N+](=O)[O-])cnn(C)c1=O [Compound 51]
Plant response rating, Nightshade, E. B. [1, 11]: 0 | Plant response rating, Nightshade, E. B. ([1]; 62 g ai/ha, scale 0 to 100): 0 | Plant response rating, Pigweed [2, 12]: 0 | Plant response rating, Pigweed [2, 13]: 0 | Pigweed plant response rating [2, 14]: 0 | Pigweed plant response rating [2, 15]: 0 | Plant response rating, Nutsedge, Yellow [3, 12]: 0 | Plant response rating, Nutsedge, Yellow [3, 13]: 0 | Nutsedge, Yellow plant response rating [3, 14]: 0 | Nutsedge, Yellow plant response rating [3, 15]: 0 | Plant response rating, Ryegrass, Italian [4, 12]: 100 | Plant response rating, Ryegrass, Italian [4, 13]: 100 | Ryegrass, Italian plant response rating [4, 14]: 100 | Ryegrass, Italian plant response rating [4, 15]: 100 | Plant response rating, Cocklebur [5, 16]: 0 | Plant response rating, Cocklebur [5, 17]: 0 | Plant response rating, Cocklebur [5, 13]: 0 | Cocklebur plant response rating [5, 14]: 0 | Plant response rating, Goosegrass [6, 17]: 75 | Plant response rating, Goosegrass [6, 13]: 90 | Goosegrass plant response rating [6, 14]: 0 | Goosegrass plant response rating [6, 15]: 60 | Plant response rating, Cupgrass, Woolly [7, 17]: 90 | Plant response rating, Cupgrass, Woolly [7, 13]: 100 | Cupgrass, Woolly plant response rating [7, 14]: 0 | Cupgrass, Woolly plant response rating [7, 15]: 80 | Plant response rating, Russian Thistle [8, 11]: 0 | Plant response rating, Russian Thistle ([8]; 62 g ai/ha, scale 0 to 100): 0 | Russian Thistle plant response rating ([8]; 8 g ai/ha, scale 0 to 100): 0 | Russian Thistle plant response rating ([8]; 16 g ai/ha, scale 0 to 100): 0 | Plant response rating, Ragweed [9, 12]: 0 | Plant response rating, Ragweed [9, 13]: 0 | Ragweed plant response rating [9, 14]: 0 | Ragweed plant response rating [9, 15]: 0 | Plant response rating, Soybean (soybean (Glycine max); [12]): 0 | Plant response rating, Soybean (soybean (Glycine max); [13]): 0 | Soybean plant response rating (soybean (Glycine max); [14]): 0 | Soybean plant response rating (soybean (Glycine max); [15]): 0 | Plant response rating, Wheat [10, 18]: 0 | Plant response rating, Wheat [10, 19]: 40 | Plant response rating, Wheat [10, 20]: 40 | Plant response rating, Wheat [10, 21]: 80

Cc1nn(C)c(=O)c(-n2nc(-c3ccc(Br)cc3)cc2C)c1O [Compound 81]
Nightshade, E. B. plant response rating [1, 22]: 0 | Plant response rating, Nightshade, E. B. [1, 11]: 0 | Plant response rating, Nightshade, E. B. [1, 23]: 50 | Nightshade, E. B. plant response rating ([1]; 16 g ai/ha, scale 0 to 100): 0 | Pigweed plant response rating [2, 24]: 0 | Pigweed plant response rating [2, 25]: 0 | Plant response rating, Pigweed [2, 26]: 0 | Plant response rating, Pigweed [2, 27]: 0 | Pigweed plant response rating [2, 28]: 0 | Plant response rating, Pigweed [2, 12]: 0 | Plant response rating, Pigweed [2, 29]: 55 | Pigweed plant response rating [2, 15]: 0 | Nutsedge, Yellow plant response rating [3, 24]: 0 | Nutsedge, Yellow plant response rating [3, 25]: 0 | Plant response rating, Nutsedge, Yellow [3, 26]: 0 | Plant response rating, Nutsedge, Yellow [3, 27]: 0 | Nutsedge, Yellow plant response rating [3, 28]: 0 | Plant response rating, Nutsedge, Yellow [3, 12]: 0 | Plant response rating, Nutsedge, Yellow [3, 29]: 0 | Nutsedge, Yellow plant response rating [3, 15]: 0 | Ryegrass, Italian plant response rating [4, 24]: 85 | Ryegrass, Italian plant response rating [4, 25]: 90 | Plant response rating, Ryegrass, Italian [4, 26]: 100 | Plant response rating, Ryegrass, Italian [4, 27]: 100 | Ryegrass, Italian plant response rating [4, 28]: 70 | Plant response rating, Ryegrass, Italian [4, 12]: 100 | Plant response rating, Ryegrass, Italian [4, 29]: 100 | Ryegrass, Italian plant response rating [4, 15]: 100 | Cocklebur plant response rating [5, 24]: 0 | Plant response rating, Cocklebur [5, 30]: 0 | Plant response rating, Cocklebur [5, 26]: 0 | Plant response rating, Cocklebur [5, 27]: 0 | Cocklebur plant response rating [5, 28]: 0 | Plant response rating, Cocklebur [5, 12]: 0 | Plant response rating, Cocklebur [5, 29]: 0 | Cocklebur plant response rating [5, 15]: 0 | Goosegrass plant response rating [6, 24]: 65 | Goosegrass plant response rating [6, 25]: 70 | Plant response rating, Goosegrass [6, 26]: 80 | Plant response rating, Goosegrass [6, 27]: 85 | Goosegrass plant response rating [6, 28]: 80 | Plant response rating, Goosegrass [6, 12]: 100 | Plant response rating, Goosegrass [6, 29]: 100 | Goosegrass plant response rating [6, 15]: 98 | Cupgrass, Woolly plant response rating [7, 24]: 75 | Plant response rating, Cupgrass, Woolly [7, 30]: 85 | Plant response rating, Cupgrass, Woolly [7, 26]: 95 | Plant response rating, Cupgrass, Woolly [7, 27]: 98 | Cupgrass, Woolly plant response rating [7, 28]: 20 | Plant response rating, Cupgrass, Woolly [7, 12]: 95 | Plant response rating, Cupgrass, Woolly [7, 29]: 98 | Cupgrass, Woolly plant response rating [7, 15]: 45 | Russian Thistle plant response rating [8, 22]: 0 | Plant response rating, Russian Thistle [8, 11]: 0 | Plant response rating, Russian Thistle [8, 23]: 0 | Russian Thistle plant response rating ([8]; 16 g ai/ha, scale 0 to 100): 0 | Ragweed plant response rating [9, 24]: 0 | Ragweed plant response rating [9, 25]: 0 | Plant response rating, Ragweed [9, 26]: 0 | Plant response rating, Ragweed [9, 27]: 20 | Ragweed plant response rating [9, 28]: 0 | Plant response rating, Ragweed [9, 12]: 0 | Plant response rating, Ragweed [9, 29]: 0 | Ragweed plant response rating [9, 15]: 0 | Soybean plant response rating (soybean (Glycine max); [24]): 0 | Soybean plant response rating (soybean (Glycine max); [25]): 0 | Plant response rating, Soybean (soybean (Glycine max); [26]): 15 | Plant response rating, Soybean (soybean (Glycine max); [27]): 20 | Soybean plant response rating (soybean (Glycine max); [28]): 0 | Plant response rating, Soybean (soybean (Glycine max); [12]): 0 | Plant response rating, Soybean (soybean (Glycine max); [29]): 0 | Soybean plant response rating (soybean (Glycine max); [15]): 0 | Plant response rating, Wheat [10, 18]: 0 | Plant response rating, Wheat [10, 19]: 70 | Plant response rating, Wheat [10, 20]: 20 | Plant response rating, Wheat [10, 21]: 50

C#CCOC(=O)Oc1cnn(C)c(=O)c1-n1nc(-c2ccc(Cl)cc2)cc1C [Compound 58]
Plant response rating, Nightshade, E. B. [1, 11]: 0 | Plant response rating, Nightshade, E. B. [1, 23]: 0 | Nightshade, E. B. plant response rating ([1]; 8 g ai/ha, scale 0 to 100): 0 | Nightshade, E. B. plant response rating ([1]; 16 g ai/ha, scale 0 to 100): 0 | Plant response rating, Pigweed [2, 12]: 0 | Plant response rating, Pigweed [2, 29]: 0 | Pigweed plant response rating [2, 14]: 0 | Pigweed plant response rating [2, 15]: 0 | Plant response rating, Nutsedge, Yellow [3, 12]: 0 | Plant response rating, Nutsedge, Yellow [3, 29]: 0 | Nutsedge, Yellow plant response rating [3, 14]: 0 | Nutsedge, Yellow plant response rating [3, 15]: 0 | Plant response rating, Ryegrass, Italian [4, 12]: 100 | Plant response rating, Ryegrass, Italian [4, 29]: 100 | Ryegrass, Italian plant response rating [4, 14]: 0 | Ryegrass, Italian plant response rating [4, 15]: 100 | Plant response rating, Cocklebur [5, 16]: 0 | Plant response rating, Cocklebur [5, 12]: 0 | Plant response rating, Cocklebur [5, 29]: 0 | Cocklebur plant response rating [5, 14]: 0 | Plant response rating, Goosegrass [6, 12]: 95 | Plant response rating, Goosegrass [6, 29]: 100 | Goosegrass plant response rating [6, 14]: 70 | Goosegrass plant response rating [6, 15]: 85 | Plant response rating, Cupgrass, Woolly [7, 12]: 100 | Plant response rating, Cupgrass, Woolly [7, 29]: 100 | Cupgrass, Woolly plant response rating [7, 14]: 75 | Cupgrass, Woolly plant response rating [7, 15]: 80 | Plant response rating, Russian Thistle [8, 11]: 20 | Plant response rating, Russian Thistle [8, 23]: 60 | Russian Thistle plant response rating ([8]; 8 g ai/ha, scale 0 to 100): 0 | Russian Thistle plant response rating ([8]; 16 g ai/ha, scale 0 to 100): 0 | Plant response rating, Ragweed [9, 12]: 0 | Plant response rating, Ragweed [9, 29]: 0 | Ragweed plant response rating [9, 14]: 0 | Ragweed plant response rating [9, 15]: 0 | Plant response rating, Soybean (soybean (Glycine max); [12]): 0 | Plant response rating, Soybean (soybean (Glycine max); [29]): 0 | Soybean plant response rating (soybean (Glycine max); [14]): 0 | Soybean plant response rating (soybean (Glycine max); [15]): 0 | Plant response rating, Wheat [10, 18]: 0 | Plant response rating, Wheat [10, 19]: 60 | Plant response rating, Wheat [10, 20]: 20 | Plant response rating, Wheat [10, 21]: 70
